{"source": "patent US20240277695A1", "about": "“FOXO INHIBITORS FOR USE IN THE TREATMENT OF DISEASES CAUSED BY ABNORMAL PROCESSING OF TDP-43 AND/OR FUS PROTEINS” (Administración General de la Comunidad Autónoma de Euskadi, priority 2020, published 2024)", "key": {"[1]": {"system": "primary myoblasts from patients with ALS", "assay": "Myogenic capacity of primary myoblasts from patients with ALS", "format": "cell-based, human", "conditions": "30 nM; primary myoblasts from sporadic and familial ALS patients", "source_text": "We looked at preliminary links between the findings in genetically-induced myoblasts and features of myoblasts from patients with ALS. To this aim, we cultured primary myoblasts obtained from muscle biopsies of two patients with ALS (patient 1 is sporadic [sALS] and patient 2 is familial [fALS]) and one control. […] Changes in TDP-43 localization were accompanied by an altered subcellular distribution of FoxO1, as reflected by increased levels of FoxO1 and FoxO3 in nuclei (FIG. 6A,C) and enhanced nuclear-to-cytosolic ratio in both patients (FIG. 6C). Remarkably, nuclear localizations of TDP-43 and FoxO1 were inversely associated in patient 2 (FIG. 6D).\nTo study whether these pathological features were linked to functional outcomes of ALS muscle, we studied the myogenic capacity of ALS myoblasts and the effect of FoxO inhibition."}, "[2]": {"system": "control Drosophila strain UAS-Dicer2-+-Mef2-GAL4", "assay": "Climbing assay and lifespan of treated control flies", "format": "in vivo, Drosophila melanogaster", "conditions": "30 μM", "source_text": "(§1) FIG. 7. Foxo inhibition improves muscle function and lifespan in Drosophila flies with muscle-conditioned deficiency of TDP-43 or FUS. […] F, Caz or Tbph-silenced flies have reduced survival times, as indicated by Kaplan-Meier curves (left panel) and median lifespan (right panel) (n=100 flies per group). […] This effect was particularly noticeable in iCaz and iTbph^attp40) fly lines (n=100 flies per group). *p<0.05: **p<0.01, ***p<0.001.\n(§2) After knowing that FoxO inhibition provides benefits to muscle cells in vitro, we wanted to further test the effects of targeting FoxO factors on muscle function under the context of TDP-43 or FUS loss-of-function in vivo. To that purpose, we generated various Drosophilamodels with muscle-conditioned silencing of either Cabeza (Caz) or Tbph genes, which are orthologs of human FUS or TARDBP, respectively. […] Drosophila has only one ortholog for mammalian FoxO factors, which is called foxo. Although the affinity of AS1842856 for Drosophila foxo has never been tested, the fact that FoxO DNA-binding sites, with which the inhibitor interacts, are well conserved among species, including Drosophila melanogaster (FIG. 7B) provides enough rationale to test its efficacy in Drosophila models."}, "[3]": {"system": "TDP-43 or FUS-silenced human immortalized myoblasts (cell line 8220)", "assay": "Metabolic flux analysis (ECAR/OCR) in TDP-43 or FUS-silenced myoblasts", "format": "cell-based", "conditions": "30 nM", "source_text": "The translocation of TDP-43 to cytoplasm is involved in myoblast differentiation and myotube generation (see reference 14). […] Thus, given the potential implication of TDP-43 and FUS in myogenesis, we modelled the loss-of-function of these genes in the human immortalized myoblast cell line 8220 by treating these cells with shRNA-expressing lentiviral particles for TDP-43 or FUS, and further analyzed any change on cell morphology, growth and myogenic capacity (FIG. 1D).\nMolecular signaling factors and reprogramming of energy metabolism are considered crucial regulators of myogenesis during adult muscle regeneration. Since TDP-43 controls skeletal muscle glucose homeostasis, we wanted to investigate whether myogenic defects induced by loss of TDP-43, and in extension of FUS, may be mediated by abnormalities of glucose metabolism. Regarding the latest, various studies conducted in Drosophila, zebrafish and mouse myoblasts have highlighted glucose metabolism as part of the core myogenic program because of its ability to provide both the rapid source of energy and the building blocks (amino acids and nucleotides) that are required for biomass production during the formation of syncytial muscles. […]"}, "[4]": {"system": "iTbph^pkk(108254) Drosophila model", "assay": "Adult pharate lethality / pupa eclosion assay", "format": "in vivo", "conditions": "30 μM", "method": "FIG. 8. […] A) Number of total pupas and the eclosioned ones were counted in different 5 tubes each group. […] T-test was performed ***p<0,001. Values are expressed as percentage mean+SD.\nAs mentioned in Example 6, iTbph^pkk(108254) Drosophila completed the metamorphosis from larvae to adult within the pupa (a phase known as pharate), but were not able to eclode from the pupa and, consequently, died. This feature is termed as adult pharate lethality and allowed us to perform assays with which to judge the efficacy of FoxO inhibition."}, "[5]": {"system": "Caz or Tbph-silenced flies", "assay": "Longevity assay in flies with muscle-conditioned silencing of Caz or Tbph", "format": "in vivo, Drosophila melanogaster", "conditions": "30 μM, particularly iCaz and iTbph^attp40", "source_text": "as §1\nWe performed longevity assays to further characterize these fly models. Either of the Caz or Tbph-silenced flies manifested dramatic reductions of survival times when compared to control group, as indicated by Kaplan-Meier curves and median lifespan (FIG. 7F). […] This effect was particularly noticeable in iCaz and iTbph^attp40 fly lines (FIG. 7G)."}, "[6]": {"system": "Drosophila flies with muscle-conditioned silencing of Caz or Tbph", "assay": "Climbing (locomotor activity) test in flies with muscle-conditioned silencing of Caz or Tbph", "format": "in vivo, Drosophila melanogaster", "conditions": "30 μM; Caz- and Tbph-silenced flies; more pronounced in Tbph lines", "source_text": "as §1, §2"}}, "note": "Entries after “also recorded” stand apart in the source; their conditions may differ."}
{"smiles": "CCn1cc(C(=O)O)c(=O)c2c(N)c(F)c(NC3CCCCC3)cc21", "note": "[AS1842856]", "values": [{"measurement": "myogenic abnormalities", "setting": "[1]", "value": "alleviated"}, {"measurement": "toxicity on lifespan", "setting": "[2]", "value": "lack of toxicity"}, {"measurement": "toxicity on motor function", "setting": "[2]", "value": "lack of toxicity"}, {"measurement": "repressed glycolytic traits (glucose- and oligomycin-stimulated ECAR)", "setting": "[3]; proliferating myoblasts silenced for either TDP-43 or FUS", "value": "significant recovery"}, {"measurement": "mitochondrial ATP production", "setting": "[3]; shTDP-43 and shFUS-treated myoblasts", "value": "enhanced mitochondrial ATP production; also recorded: improved the mitochondrial ATP production"}, {"measurement": "eclosion efficiency of pupas", "setting": "[4]; UAS-Dicer2-iTbph^pkk(108254)-Mef2-GAL4", "value": "significantly ameliorates"}, {"measurement": "pharate lethality in control flies", "setting": "[4]; control flies", "value": "did not produce pharate lethality"}, {"measurement": "mitigation of pharate lethality", "setting": "[4]; iTbph^pkk(108254) Drosophila", "value": "approximately 20%"}, {"measurement": "survival (Kaplan-Meier, median lifespan)", "setting": "[5]", "value": "higher survival rates"}, {"measurement": "muscle function (climbing activity)", "setting": "[6]", "value": "strong benefits on muscle function"}]}
